# Source: patent publication US10188659B2, “IGF-1R signaling pathway inhibitors useful in the treatment of neurodegenerative diseases” (YISSUM RESEARCH DEVELOPMENT COMPANY OF THE HEBREW …, priority 2013, dated 2019)
# Several values for one entry are separate records, joined by “and”; a condition that tells them apart may be missing. Equal entries are not always repeated.
# Legend:
# [1] = test system: DAF-16::GFP expressing worms (strain TJ356); experiment: DAF-16 localization assay; format: in vivo, Caenorhabditis elegans; settings: 300 μM, 6 hours
# Description: Synchronized TJ356 worms were grown on the EV control bacteria. At the indicated ages (days 1 of adulthood), 25 worms were transferred onto daf-2 RNAi bacteria for the indicated time (6 h). […] (Molecular Probes), Invitrogen, Carlsbad, Calif., USA]. DAPI and GFP signals were visualized using a fluorescent microscope (Leica DM6000 B; Leica, Wetzlar, Germany). […] The worms were let hatched and develop on control bacteria harboring an empty vector (EV) (FIG. 1A) or on daf-2 RNAi bacteria (FIG. 1B). […] The worms were then fixed and stained with DAPI. […] Paralyzed worms were scored daily. […] The worms were placed on plates seeded with EV bacteria and exposed to 35° C. for 15 hours and survival rates were scored by counting the surviving worms. The results of a representative experiment (three repeats were performed) is presented on FIG. 3.
# [2] = test system: Aβ worms (strain CL2006); experiment: Paralysis assay in Aβ worms; format: in vivo, Caenorhabditis elegans
# [3] = test system: CF512 worms; experiment: Heat stress assay; format: in vivo, Caenorhabditis elegans; settings: for stress resistance (survival): 300 μM, 3 hours at day 1, 35° C. for 15 hours
# [4] = test system: CF512 worms; experiment: UV stress assay; format: in vivo, Caenorhabditis elegans; settings: sub-lethal UV dose
# [5] = test system: AKT; experiment: IGF1-induced AKT phosphorylation, Western blot in A375 cells; format: cell-based, human
# [6] = test system: hsp-16.2 promoter (strain CL2070); experiment: hsp-16.2 promoter GFP induction after heat, Western blot; format: in vivo, Caenorhabditis elegans; settings: CL2070 worms, 33° C. three hours
# [7] = test system: hsp-70 promoter (hsp-70p::GFP); experiment: hsp-70 promoter GFP induction after heat, fluorescent microscopy; format: in vivo, Caenorhabditis elegans; settings: 600 μM, heat stress 33° C., 3 h
# [8] = test system: DAF-16, HSF-1 and SKN-1 target genes; experiment: Real-time quantitative PCR of IIS target genes; format: in vivo, Caenorhabditis elegans; settings: CF512 worms, 600 μM, 3 hours days 1 and 2, vs control
# [9] = test system: Aβ; experiment: Aβ aggregation, Western blot after high-speed centrifugation; format: in vivo, Caenorhabditis elegans; settings: CL2006 worms, WB with 6E10 antibody
# [10] = test system: Aβ; experiment: Aβ immunofluorescence in worms; format: in vivo, Caenorhabditis elegans; settings: immuno-fluorescence
# [11] = test system: polyQ40-YFP worms; experiment: polyQ40-YFP foci count; format: in vivo, Caenorhabditis elegans
# [12] = test system: polyQ35-YFP worms; experiment: Motility assay (crawling speed); format: in vivo, Caenorhabditis elegans; settings: 600 μM daily day 1 to 11
# [13] = test system: polyQ40-YFP; experiment: polyQ40-YFP aggregation (WB, high-speed pellets, native gel); format: in vivo, Caenorhabditis elegans
# [14] = test system: IRS1 and IRS2; experiment: IRS1/IRS2 Ser-phosphorylation and degradation, Western blot in A375 cells
smiles,measurement,setting,value
Oc1cc(CNC(=S)/C=C/c2cc(O)c(O)c(Br)c2)cc(O)c1O [Compound 29],nuclear localization of DAF-16 (co-localization of DAPI and GFP signals),[1],confirmed the nuclear localization of DAF-16
same,paralysis rates,"[2]; 300 μM, soaked 3 hours days 1 and 2, then daily 25 μl",increased in reduced rates compared to the untreated control
same,stress resistance (survival),[3],elevate stress resistance of CF512 worms
Oc1cc(CNC(=S)/C=C/c2ccc(O)c(O)c2Br)cc(O)c1O [Compound 39],rate of paralyzed worms at day 12,"[2]; 600 μM compound (or daf-2 RNAi throughout), day 12 of adulthood",29%
same,stress resistance (survival),[3],elevate stress resistance of CF512 worms
same,raise of survival rates compared to the untreated population,[3]; 15 hours at 35° C.,33%
same,survival rate after heat stress,[3]; 15 hours at 35° C.,72% and 71.7%
same,mean survival after UV radiation (days±SEM),[4],8.76 ± 0.21 days
same,"AKT phosphorylation, kinetic experiment",[5],partial inhibition of AKT phosphorylation
same,IGF1-induced activation of AKT (phosphorylation on threonine 308 and serine 473),"[5]; A375 cells, short and long exposures",abolished the IGF1-induced activation of AKT
same,hsp-16.2 promoter driven GFP level,[6]; 150 μM,no detectable effect
same,hsp-16.2 promoter driven GFP level,[6]; 300 μM,moderate effect
same,hsp-16.2 promoter driven GFP level,[6]; 600 μM,remarkably increased the induction of GFP
same,hsp-16.2 promoter driven GFP level,[6]; 900 μM,lower effect than that of 600 μM
same,hsp-70 promoter driven GFP fluorescence,[7],elevated GFP fluorescence levels
same,average increase of expression of DAF-16 and SKN-1 target genes,[8],19-37%
same,elevation of expression level of hsp-70,[8],approximately 170%
same,high molecular-weight Aβ aggregates,[9],elevated amount of high molecular-weight Aβ aggregates
same,Aβ amounts and distribution,[10],enhanced the amount of Aβ and led to its accumulation in the central part of the animal's body
same,average number of polyQ40-YFP foci/worm,[11],52.78 foci/worm
same,average crawling speed at day 11 relative to day 1 of adulthood,[12],32.9%
same,"polyQ40-YFP aggregation, YFP fluorescence on native gel",[13]; 1% native gel,did not exhibit elevated rates of polyQ40-YFP aggregation
same,aggregated polyQ40-YFP in high-speed pellets,[13]; WB after high-speed centrifugation,no increase was seen
same,"SDS resistant polyQ40-YFP aggregates, whole worm homogenates","[13]; WB, GFP antibody, day 2",no such material could be detected
same,IRS1 and IRS2 protein levels,[14]; long exposure (19 hours),elimination of IRS1 and IRS2
same,phosphorylation of IRS1 and IRS2 on serine residues,[14]; short exposure (4 hours),massive phosphorylation on serine residues
